Data on 7 molecules can be found in US7253295B2, “Chloride channel opener” (Sucampo AG, priority 2001, dated 2007).

For one test, the system named is AS-HBE cells. As to the kind of experiment: Short-circuit current in AS-HBE cells (Test Example 3). It is filed as cell-based, human. To be noted: 250 nM. Here is the method: AS-HBE is a human bronchial epithelial (HBE) cell line expressing the first 131 nucleotides of CFTR in the antisense direction (antisense CFTR 16HBE14o- cells, HBE-AS; also called AS-HBE). As a result, AS-HBE cells lack CFTR transcripts and lack functional CFTR. However, AS-HBE cells do express functional ClC-2 in a manner identical to the parental cell line, 16HBE14o- cells, from which they were derived. AS-HBE cells were maintained at 37° C. in 5%/95% CO2/O2 in Minimal Essential Medium (MEM; GIBCO/Invitrogen, Carlsbad, Calif.) supplemented with Earl's salt, L-glutamine (GIBCO/Invitrogen), 10% heat-inactivated fetal bovine serum, 100 units/ml penicillin, 100 μg/ml streptomycin sulfate and 400 μg/ml G-418 (GIBCO/Invitrogen). The cells were grown in air-liquid interface on Biocoat inserts (Fisher Scientific, Chicago, Ill.), coated with human plasma fibronectine (GIBCO/Invitrogen) and vitrogen (Cohesion Technologies, Palo Alto, Calif.).
According to the same manner as described in Example 2, Short-circuit current measurements in the AS-HBE cells were carried out. Changes in short-circuit current (ΔIsc) were normalized to the filter area (0.3 cm^2) and reported as ΔIsc/cm^2.
Test compounds were used at a final concentration of 250 nM.
With `CCCCC(F)(F)C1(O)CC[C@H]2[C@@H](CC(=O)[C@@H]2CCCCCCC(=O)NCC)O1` (stereo partly drawn) [Compound 3, N1-ethyl-7-[(2,4aR,5R,7aR)-2-(1,1-difluoropentyl)-2-hydroxy-6-oxoperhydrocyclopenta[b]pyran-5-yl]heptanamide], the “Changes in short-circuit currents (Δlsc)” value was found to be 2.7 μA/cm^2. Still for that read-out and setting: next, `CCCCC(F)(F)C(=O)/C=C/[C@H]1[C@H](O)CC(=O)[C@@H]1CCCCCCC(=O)O` [Compound 4, 15-keto-16,16-difluoro-PGE1]: 1.0 μA/cm^2; `CCCCCCC(F)(F)C1(O)CC[C@H]2[C@@H](CC(=O)[C@@H]2CCCCCCCCC(=O)OC(C)C)O1` (stereo partly drawn) [Compound 5, Isopropyl (−)-9-[(4aR,5R,7aR)-2-(1,1-difluoroheptyl)-2-hydroxy-6-oxoperhydrocyclopenta[b]pyran-5-yl]nonanoate]: 0.3 μA/cm^2; `CCCCC[C@H](O)/C=C/[C@@H]1[C@@H](C/C=C\CCCC(=O)O)[C@@H](O)C[C@H]1O` [Compound 6, PGF2α, reference compound]: 0.7 μA/cm^2.

In the case of `CCCCC[C@H](O)/C=C/[C@@H]1[C@H]2C/C(=C/CCCC(=O)[O-])O[C@H]2C[C@H]1O.[Na+]` [Compound 7, PGI2-Na, reference compound], the “Changes in short-circuit currents (Δlsc)” value stood at 1.0 μA/cm^2.

In the next test the target is T1, recombinant human ClC-2 Chloride Channels (Homo sapiens, UniProt P51788).
T1 construct: His; T7; expressed in transfected cells; host or cells: HEK-293 (ATCC), pcDNA3.1, G-418 selected
T1 sequence (P51788 1-898): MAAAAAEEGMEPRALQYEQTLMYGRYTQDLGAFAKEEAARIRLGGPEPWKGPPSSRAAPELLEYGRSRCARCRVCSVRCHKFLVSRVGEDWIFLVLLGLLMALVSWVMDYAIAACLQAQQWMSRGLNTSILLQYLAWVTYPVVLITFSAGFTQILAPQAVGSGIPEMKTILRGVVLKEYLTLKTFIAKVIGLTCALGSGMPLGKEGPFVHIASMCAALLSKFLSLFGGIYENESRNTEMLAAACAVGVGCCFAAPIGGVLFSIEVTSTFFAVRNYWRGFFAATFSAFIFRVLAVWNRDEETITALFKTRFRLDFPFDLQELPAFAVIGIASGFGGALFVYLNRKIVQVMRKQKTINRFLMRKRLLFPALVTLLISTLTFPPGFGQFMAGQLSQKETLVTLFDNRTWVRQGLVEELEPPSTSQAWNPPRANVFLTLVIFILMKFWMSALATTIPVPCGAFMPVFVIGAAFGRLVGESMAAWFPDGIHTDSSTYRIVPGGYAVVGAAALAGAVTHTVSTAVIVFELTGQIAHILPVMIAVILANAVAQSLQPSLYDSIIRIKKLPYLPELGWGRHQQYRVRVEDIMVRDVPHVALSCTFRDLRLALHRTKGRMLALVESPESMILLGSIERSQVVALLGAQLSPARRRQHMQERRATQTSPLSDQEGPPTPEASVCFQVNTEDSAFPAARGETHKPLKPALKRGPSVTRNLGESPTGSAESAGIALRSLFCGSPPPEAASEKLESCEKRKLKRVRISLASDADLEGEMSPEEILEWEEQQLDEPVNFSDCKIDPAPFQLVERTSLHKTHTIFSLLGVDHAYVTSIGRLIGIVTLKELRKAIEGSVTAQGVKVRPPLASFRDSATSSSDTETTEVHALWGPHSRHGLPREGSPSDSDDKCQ
In words: Whole cell patch clamp, ClC-2 transfected HEK cells, current increase (Test Example 4). To be noted: 100 nM, change from control. It is filed as cell-based. On the procedure: According to the same manner as described in Example 1, whole cell patch clamp measurements were carried out.
Test compounds were used at a final concentration of 100 nM.
Turning to `CCCCC(F)(F)C(O)CC[C@H]1[C@H](O)CC(=O)[C@@H]1CCCCCCC(=O)O` (stereo partly shown) [Compound 8, 13,14-dihydro-16,16-difluoro-PGE1], the “Activation of ClC-2 channels ΔpA/pF” value is given as 24.6 pA/pF.

`CCCCC(F)(F)C1(O)CC[C@@H]2[C@@H](CCCCCCC(=O)NCC)[C@@H](O)C[C@H]2O1` (stereo partly drawn) [Compound 9, N1-ethyl-7-[(2,4aR,5R,6S,7aR)-2-(1,1-difluoropentyl)-2,6-dihydroxyperhydrocyclopenta[b]pyran-5-yl]heptanamide]: the “Activation of ClC-2 channels ΔpA/pF” value is 38.2 pA/pF.
